Experimental data taken from patent US11001613B2, “TFPI inhibitors and methods of use” (priority 2008, dated 2021).
One block for each compound: values may come before it. Residues, ends and D or L forms follow the SMILES beside them.

Legend:
TFPI-1 = molecular target: T1, TFPI-1 (Homo sapiens, UniProt P10646); assay: FXa inhibition assay; type: biochemical; details: OD readings after 115 minutes
T1 sequence (P10646 29-304): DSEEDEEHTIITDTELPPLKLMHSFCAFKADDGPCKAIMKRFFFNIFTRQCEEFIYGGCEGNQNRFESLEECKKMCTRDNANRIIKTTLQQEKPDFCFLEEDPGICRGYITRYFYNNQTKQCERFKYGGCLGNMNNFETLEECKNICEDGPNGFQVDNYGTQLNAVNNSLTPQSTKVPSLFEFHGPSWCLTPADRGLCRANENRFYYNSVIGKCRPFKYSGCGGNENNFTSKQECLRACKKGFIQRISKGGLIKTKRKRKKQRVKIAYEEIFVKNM

[1] = in vivo, iv, 10 mg/kg
[2] = test system: TFPI-dependent thrombin generation in FVIII deficient plasma; assay: thrombin generation (calibrated automated thrombography) in FVIII deficient plasma; details: plasma-based assay, FIGS. 11A and 11B

EC50 (TFPI-1): 0.6 µM
Compound: CC(=O)N[C@@H](Cc1ccccc1)C(=O)N[C@@H](CCC(N)=O)C(=O)N[C@@H](CO)C(=O)N[C@@H](CCCCN)C(=O)N[C@@H](CC(N)=O)C(=O)N[C@@H](CC(N)=O)C(=O)N[C@H](C(=O)N[C@@H](Cc1ccccc1)C(=O)N[C@H](C(=O)N[C@@H](Cc1ccccc1)C(=O)NCC(=O)N[C@@H](Cc1ccc(O)cc1)C(=O)N[C@@H](Cc1ccccc1)C(=O)N[C@@H](CCC(=O)O)C(=O)N[C@@H](CCCNC(=N)N)C(=O)N[C@@H](CC(C)C)C(=O)N[C@@H](CCCNC(=N)N)C(=O)N[C@@H](C)C(=O)N[C@@H](CCCCN)C(=O)N[C@@H](CC(C)C)C(N)=O)C(C)C)C(C)C [JBT0297] (Ac-FQSKNNVFVFGYFERLRAKL-NH2)

concentration of peptide in mouse plasma over time [1]: rapidly cleared from the plasma
Compound: CC(=O)N[C@@H](Cc1ccccc1)C(=O)N[C@@H](CCC(N)=O)C(=O)N[C@@H](CO)C(=O)N[C@@H](CCCCN)C(=O)NCC(=O)N[C@@H](CC(N)=O)C(=O)N[C@H](C(=O)N[C@@H](Cc1ccccc1)C(=O)N[C@H](C(=O)N[C@@H](CC(=O)O)C(=O)NCC(=O)N[C@@H](Cc1ccc(O)cc1)C(=O)N[C@@H](Cc1ccccc1)C(=O)N[C@@H](CCC(=O)O)C(=O)N[C@@H](CCCNC(=N)N)C(=O)N[C@@H](CC(C)C)C(=O)NC(C)(C)C(=O)N[C@@H](C)C(=O)N[C@@H](CCCCN)C(=O)N[C@@H](CC(C)C)C(N)=O)C(C)C)C(C)C [JBT0740]

Compound: CSCC[C@@H]1NC(=O)CNC(=O)[C@@H](NC(=O)[C@H](Cc2ccccc2)NC(=O)[C@H](Cc2c[nH]c3ccccc23)NC(=O)[C@H](CCCCN)NC(=O)[C@H](Cc2ccc(O)cc2)NC(=O)[C@H](CCCNC(=N)N)NC(=O)[C@H](CO)NC(=O)[C@H](C)NC(=O)CNC(=O)[C@H](CO)NC(C)=O)CSSC[C@@H](C(=O)N[C@H](C(=O)N[C@@H](Cc2c[nH]c3ccccc23)C(=O)N[C@H](C(=O)N[C@@H](CCCCN)C(=O)N[C@@H](Cc2ccccc2)C(=O)N[C@@H](CCCNC(=N)N)C(=O)N[C@@H](Cc2ccc(O)cc2)C(=O)N[C@@H](CC(=O)O)C(=O)N[C@H](C(=O)N[C@@H](CO)C(N)=O)[C@@H](C)O)C(C)C)C(C)C)NC(=O)[C@H](CO)NC(=O)[C@H](CCSC)NC(=O)[C@H]([C@@H](C)O)NC(=O)CNC(=O)[C@H](CCCCN)NC(=O)[C@H](CCSC)NC(=O)[C@H](CC(=O)O)NC(=O)[C@H](CCCNC(=N)N)NC1=O [JBT0120]
peak thrombin and peak time [2]: improved peak thrombin and peak time, dose dependently
